The values below come from patent US9573907B2, “2, 4-pyrimidine derivatives and use thereof” (SNU R&DB FOUNDATION, priority 2009, dated 2017).

Molecules are shown by their SMILES. Entries after “also recorded” stand apart in the source; their conditions may differ.

Experiment [1] deals with interaction of gp96 and AIMP1 (Mus musculus, UniProt P08113). The experiment in a line: ELISA assay of gp96-AIMP1 interaction. The class given is binding, murine. Here is the method: FIGS. 1 to 9 represent suppression of cell surface gp96 by GPM1 reduces DC maturation and B220^+ population in gp96tm transgenic mice. (FIG. 1) Chemical structure of GPM1 (Formula 2) and negative control (NC1, Formula 16) used in this study. (FIG. 2) The dose-dependent effect of GPM1 or NC1 on the AIMP1-gp96 interaction using ELISA method as described. The indicated concentrations of the two compounds and biotin-conjugated murine gp96 were added to AIMP1 coated on the surface of microtiter wells, and gp96 bound to AIMP1 was detected with strepavidin-conjugated peroxidase. (FIG. 3) The binding of GPM1 to gp96 was examined by surface plasmon resonance (SPR). GPM1 at the indicated concentrations was injected to immobilized gp96 and the binding was measured using Biacore 3000. The response data were processed using data from a reference surface and buffer injections. Each concentration was tested in triplicate. (FIG. 4) RAW24.7 cells were treated with 10 μM GPM1 for 24 h. Cell lysates were immunoprecipitated with control IgG or anti-gp96 antibody and the immunoprecipitated proteins were immunoblotted with anti-KDELR1, antiAIMP1 and gp96 antibodies. WCL means whole cell lysate. (FIG. 5) Splenocytes isolated from C57BL/6 mice were treated with vehicle (5% DMSO in PBS), GPM1, or NC1 (10 μM, 24 h), stained for cell surface gp96, and followed by flow cytometry. (FIG. 6) AIMP1^+/+ or AIMP1^−/− mouse splenocytes (2×10^5 cells) were treated with vehicle, GPM1, or NC1 (10 μM, 24 h), fixed, and then co-cultured with WT bone marrow-derived DCs (1×10^4 cells) for 16 h. TNFα secreted from BMDCs was quantified by ELISA. (FIG. 7) Percentage of gp96^+ MHC class II^+ cell population in splenocytes from gp96tm transgenic female mice treated with vehicle (control) (n=9), GPM1 (n=9), and dexamethasone (n=7) at 30 mg/kg. (FIG. 8) Cell surface ICOSL of CD11b^+CD11c^+ (myeloid DCs), CD11b^−CD11c^+ (lymphoid DCs), and CD11b^+CD11c^− (macrophages) cell populations in splenocytes from gp96tm transgenic female mice treated with vehicle (n=9) and GPM1 (n=9) at 30 mg/kg. (FIG. 9) Percentage of B220^+, MHC class II^+, CD4^+, CD8^+, CD4 and CD8 double negative cell populations in splenocytes from gp96tm transgenic female mice treated with vehicle (n=9), GPM1 (n=9), and dexamethasone (n=7) at 30 mg/kg. Student t-test P values comparing GPM1-treated mice with control are indicated.
96-well plates (Maxisorp., F96; Nunc) were coated with 500 ng/well AIMP1 in PBS (pH 7.4). After washing, the remaining sites were blocked with PBS containing 1% BSA for 1 h. Binding of 10 ng/well biotin-conjugated gp96 was performed in Tris buffer (25 mM Tris, 10 mM NaCl and 0.4% Triton X-100). Each of the 6,580 compounds was added to the well at 100 nM and the plates were washed and incubated with HRP conjugated streptavidin in PBS containing 0.1% BSA and 0.1% Tween 20 for 30 min. The plates were washed, and then substrate was added to each well. The absorbance was monitored at 450 nm.
To identify chemicals that can affect membrane translocation of gp96, the present inventors employed the interaction of gp96 with AIMP1 as the screening target. For this screening, the present inventors chose 6,482 chemicals with different pharmacophore representing 150,000 different chemicals deposited in Korea Chemical Bank and identified the compounds that can inhibit the interaction of the two proteins. For the screening, the present inventors set up a modified ELISA method using recombinant AIMP1 and gp96 proteins as described in Experimental methods. Each of the tested compounds gave different effect on the interaction of the two proteins (FIG. 19). And the present inventors have selected 12 compounds that inhibited the interaction more than 95% of the control at 0.1 μM (Table 1). The present inventors obtained 1251 additional compounds derived from these 12 initial hits and tested them again for their activities against the gp96-AIMP1 interaction.
(An ELISA detects its analyte on a solid surface through an enzyme-linked reagent.)

Experiment [2] has as its system cell surface gp96 of splenocytes isolated from C57BL/6 mice. Description: Flow cytometry of cell surface gp96 on splenocytes. As to conditions: 10 μM, 24 h. It counts as cell-based. How it is done: FIGS. 1 to 9 represent suppression of cell surface gp96 by GPM1 reduces DC maturation and B220^+ population in gp96tm transgenic mice. (FIG. 1) Chemical structure of GPM1 (Formula 2) and negative control (NC1, Formula 16) used in this study. (FIG. 2) The dose-dependent effect of GPM1 or NC1 on the AIMP1-gp96 interaction using ELISA method as described. The indicated concentrations of the two compounds and biotin-conjugated murine gp96 were added to AIMP1 coated on the surface of microtiter wells, and gp96 bound to AIMP1 was detected with strepavidin-conjugated peroxidase. (FIG. 3) The binding of GPM1 to gp96 was examined by surface plasmon resonance (SPR). GPM1 at the indicated concentrations was injected to immobilized gp96 and the binding was measured using Biacore 3000. The response data were processed using data from a reference surface and buffer injections. Each concentration was tested in triplicate. (FIG. 4) RAW24.7 cells were treated with 10 μM GPM1 for 24 h. Cell lysates were immunoprecipitated with control IgG or anti-gp96 antibody and the immunoprecipitated proteins were immunoblotted with anti-KDELR1, antiAIMP1 and gp96 antibodies. WCL means whole cell lysate. […] TNFα secreted from BMDCs was quantified by ELISA. […]
For orientation: Flow cytometry measures light scatter and fluorescence of single cells or particles in a stream.

A further experiment deals with HL-60 cell lines. Description: FACS analysis of gp96 on cell surface of HL-60 cell lines. It counts as cell-based. Particulars: 1 mM, 24 hours. Here is the method:
FIG. 35 is a graph showing an FACS analysis result using gp96 antibody, on the amount of gp96 protein existing on a cell surface, when HL-60 cell lines were treated with a 2,4-pyrimidine derivatives at a concentration of 1 mM for 24 hours.
Also, HL-60 cell lines were treated with a 2,4-pyrimidine derivative at a concentration of 1 mM for 24 hours, and the amount of gp96 protein existing on a cell surface was analyzed through flow cytometry (FACS) using gp96 antibody.

Sequence of interaction of gp96 and AIMP1 (P08113 22-802): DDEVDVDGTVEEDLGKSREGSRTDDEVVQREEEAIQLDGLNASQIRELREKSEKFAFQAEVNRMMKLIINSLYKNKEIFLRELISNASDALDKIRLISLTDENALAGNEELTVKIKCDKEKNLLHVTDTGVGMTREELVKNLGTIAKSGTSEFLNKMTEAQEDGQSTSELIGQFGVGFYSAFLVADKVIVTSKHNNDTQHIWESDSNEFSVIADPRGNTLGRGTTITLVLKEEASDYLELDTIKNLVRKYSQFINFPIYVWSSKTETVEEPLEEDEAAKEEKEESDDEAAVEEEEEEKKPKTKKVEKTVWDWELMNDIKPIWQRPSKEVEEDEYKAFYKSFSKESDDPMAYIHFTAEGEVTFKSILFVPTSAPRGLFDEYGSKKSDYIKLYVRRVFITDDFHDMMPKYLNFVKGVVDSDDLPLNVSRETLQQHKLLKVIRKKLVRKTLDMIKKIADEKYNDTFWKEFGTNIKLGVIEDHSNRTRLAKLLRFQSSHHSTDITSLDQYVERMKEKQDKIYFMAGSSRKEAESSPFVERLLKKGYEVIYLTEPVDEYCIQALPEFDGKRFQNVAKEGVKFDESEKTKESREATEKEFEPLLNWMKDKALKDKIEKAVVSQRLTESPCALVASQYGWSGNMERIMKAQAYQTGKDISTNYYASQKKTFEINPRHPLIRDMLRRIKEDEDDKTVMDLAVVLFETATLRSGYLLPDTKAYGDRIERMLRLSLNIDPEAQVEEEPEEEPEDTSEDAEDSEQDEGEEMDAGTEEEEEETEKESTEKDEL

Take `COc1cc(OC)nc(OC(Cc2ccccc2)C(=O)O)n1` (stereo not shown) [NC1, 2-(4,6-dimethoxypyrimidin-2-yloxy)-3-phenylpropanoic acid, reference compound]: the “inhibition on the interaction of gp96 and AIMP1” value in experiment [1] is given as 4%. Besides, the “dose-dependent effect on the interaction of gp96 and AIMP1” value in experiment [1] (ELISA) is given as “no effect”. The “surface gp96 of mouse splenocytes” value in experiment [2] is on record as “not”.

As for `COc1cc(OC)nc(OC(C(=O)N2CCCCC2)C(C)C)n1` (stereo not shown) [KR-S-007, 2-(4,6-dimethoxy-pyrimidin-2-yloxy)-3-methyl-1-piperidin-1-yl-butan-1-one], the “amount of gp96 protein existing on a cell surface” value (shortened to “amount of gp96 protein existing”) with HL-60 cell lines is on record as “better effects than KR-S-015; also recorded: better than ester (KR-S-010) or acid (KR-S-009)”.

As for `COC(=O)[C@@H](C)Oc1nc(OC)cc(OC)n1` [KR-S-012, D-2-(4,6-Dimethoxy-pyrimidin-2-yloxy)-propionic acid methyl ester], the “amount of gp96 protein existing” value with HL-60 cell lines is “better effects than KR-S-015; also recorded: better than isopropyl (KR-S-009, KR-S-010)”.

Take `COc1cc(OC)nc(OC(C(=O)O)C(C)C)n1` (stereo not shown) [KR-S-009, 2-(4,6-dimethoxy-pyrimidin-2-yloxy)-3-methyl-butyric acid]: the “amount of gp96 protein existing” value in the experiment on HL-60 cell lines is listed as “better effects than KR-S-015”.

As for `COc1cc(OC)nc(OC(C(=O)N2CCOCC2)C(C)C)n1` (stereo not shown) [KR-S-008, 2-(4,6-dimethoxy-pyrimidin-2-yloxy)-3-methyl-1-morpholin-4-yl-butan-1-one], the “amount of gp96 protein existing” value with HL-60 cell lines is recorded as “better effects than KR-S-015; also recorded: better than ester (KR-S-010) or acid (KR-S-009)”.

Regarding `COC(=O)C(C)(C)Oc1nc(OC)cc(OC)n1` [KR-S-013, 2-(4,6-Dimethoxy-pyrimidin-2-yloxy)-2-methyl-propionic acid methyl ester], the “amount of gp96 protein existing” value in the experiment on HL-60 cell lines was “better effects than KR-S-015”.

As for `COc1cc(OC)nc(O[C@@H](C)C(=O)O)n1` [KR-S-024, L-2-(4,6-Dimethoxy-pyrimidin-2-yloxy)-propionic acid], in the experiment on HL-60 cell lines, the “amount of gp96 protein existing” value is given as “better effects than KR-S-015; also recorded: better than isopropyl (KR-S-009, KR-S-010)”.

Take `COc1cc(OC)nc(OC(C(=O)O)c2ccccc2)n1` (stereo not shown) [KR-S-017, (4,6-Dimethoxy-pyrimidin-2-yloxy)-phenyl-acetic acid]: the “amount of gp96 protein existing” value in the experiment with HL-60 cell lines is “better effects than KR-S-015”.
